# Measured values taken from ChEMBL document CHEMBL5226365, “Xylochemical Synthesis and Biological Evaluation of the Orchidaceous Natural Products Isoarundinin I, Bleochrin F, Blestanol K, and Pleionol” (J Nat Prod, 2023).
# pIC50: −log10 of the molar value.
# What was measured:
# [1] = Resistance index, ratio of IC50 for cytotoxicity against human CEM/ADR5000 cells overexpressing P-gp to IC50 for cytotoxicity against human CCRF-CEM cells; assay type: functional
# [2] = system: CCRF-CEM; test: Cytotoxicity against human CCRF-CEM cells assessed as inhibition of cell growth incubated for 72 hrs by resazurin assay; assay type: functional, cell-based
# [3] = Cytotoxicity against human PBMC assessed as cell viability at 100 uM incubated for 72 hrs by resazurin assay; assay type: toxicity, cell-based
# [4] = system: ADR5000 cell line; test: Cytotoxicity against human CEM/ADR5000 cells overexpressing P-gp assessed as inhibition of cell growth incubated for 72 hrs by resazurin assay; assay type: functional, cell-based; conditions: ADR5000, 72 h
SMILES,Ratio IC50 [1],pIC50 [2],Activity [3],pIC50 [4]
COc1cc(O)cc(CCc2cccc(O)c2)c1Cc1ccc(O)cc1,1.4,4.36,Non-Toxic,4.22
COc1cc(C2c3ccc(O)cc3CCc3cc(O)cc(OC)c32)ccc1O (stereo unspecified),0.9,4.73,Non-Toxic,4.77
COc1cc(O)c(Cc2ccc(O)cc2)c2c1C(c1ccc(O)cc1)c1ccc(O)cc1CC2 (racemic),7.1,5.17,Non-Toxic,4.32
COc1cc(O)cc2c1C(c1ccc(O)cc1)c1ccc(O)cc1CC2 (racemic),,4.34,Non-Toxic,< 4.00
COc1cccc2c1C(=O)c1c(O)c3c(c(O)c1C2=O)C[C@@](O)(C(=O)CO)C[C@@H]3O[C@H]1C[C@H](N)[C@H](O)[C@H](C)O1 [DOXORUBICIN],>1000,,,
